In one data set the test system is plasmid DNA. The experiment in a line: DNA binding by gel electrophoresis (gel shift assay). The conditions noted are these: plasmid DNA 4.7 kb, equivalent molar ratios to HEA-quinine copolymer. Background: In EMSA bound probe runs differently from free probe, usually more slowly.
For data set [1] the following is noted: cited from earlier work.
For a further data set, the system named is HeLa cells. In kind it is cell-based, human. The source says: Transfection with the acrylate copolymer poly(HEA-co-acrylate), however, provided more promising results. […] Transfection studies with the HEA copolymer will continue at higher N/P ratios in hope of achieving transfection efficiency similar to that of PEI while maintaining limited toxicity.

Description for plasmid DNA: DNA Binding Studies by Gel Electrophoresis. After the 1 hour incubation period, the polyplex solutions of all N/P ratios (10 μL) were each mixed with a 30% glycerol solution in water (2 μL). The solutions were loaded into 0.6% agarose gel containing ethidium bromide (6 μL/100 mL TAE buffer) and run at 60 V for 60 minutes. The gel was visualized under UV transilluminator (λ=366 nm).
The first step in this process is to mix the polymer and pDNA together to form the polyplex. […] Once combined, the solution is left to incubate at room temperature for 1 hour. Polyplexes are formed with varying concentrations of polymer to DNA which are expressed by their N/P ratio. The N/P ratio expresses the molar ratio of cationic amine groups on the polymer (N) over the number of anionic phosphate groups of the DNA backbone (P). […]
Upon a slow addition of an aqueous polymer solution to an aqueous DNA solution (0.02 μg/μL) at a 1:1 v/v ratio, the polymer and DNA self-assemble to form polyplexes. The target concentration of the polymer in the polyplex solution was determined by the target N/P ratio which is the molar ratio of cationic amine groups on the polymer (N) to anionic phosphate groups of the DNA backbone (P). […]

Consider `C=C[C@H]1C[N@@]2CC[C@H]1C[C@H]2[C@H](O)c1ccnc2ccc(OC)cc12` [quinine], for which, in the data set with plasmid DNA, the “ability to bind DNA in gel shift assay” value is reported as “inability”. In addition, the “pKa of quinoline nitrogen” value in data set [1] (4-aminoquinoline nitrogen of chloroquine vs quinoline nitrogen of quinine) is reported as 5.2.
Regarding `C=C(C)C(=O)NCCN` [AEMA, N-(2-aminoethyl) methacrylamide], the “pKa of basic amine” value in data set [1] (basic tertiary amine of chloroquine and quinine, amine of AEMA) is reported as 9.3.
Take poly(HEA-co-quinine) [HEA copolymer]: the “toxicity (qualitative inspection)” value with HeLa cells is recorded as “much less toxic”.

Source of the values: US11667784B2, “Copolymers including cinchona alkaloid components and one or more acrylamide or acrylate containing components, complexes containing the same, and methods of using the” (REGENTS OF THE UNIVERSITY OF MINNESOTA, priority 2017, dated 2023).
